Measured values published in ChEMBL document CHEMBL5365420, “Kinetics, Thermodynamics, and Structural Effects of Quinoline-2-Carboxylates, Zinc-Binding Inhibitors of New Delhi Metallo-β-lactamase-1 Re-sensitizing Multidrug-Resistant Bacteria for Carbapenems” (J Med Chem, 2023).
pIC50, pKd: −log10 of the molar value.

Key:
[1] = target: T1, Metallo-beta-lactamase type 2 (Bacteria, UniProt C7C422)
Description: Inhibition of C-terminal 6His-tagged full length NDM-1 (unknown origin) expressed in Escherichia coli BL21-DE3 using nitrocefin as substrate incubated for 15 mins followed by substrate addition by absorbance based microplate reader analysis

[2] = target: Histone deacetylase 1 (Homo sapiens) (UniProt Q13547); assay: Inhibition of C-terminal 6His/FLAG-tagged human recombinant full-length HDAC1 (1 to 482(end) residues) at 10 uM using Boc-Lys-(Ac)-AMC as substrate incubated for 10 mins followed by substrate addition measured after 1 hr by fluorescence based analysis relative to control; conditions: time 70.0 min
Chain of Histone deacetylase 1 (Homo sapiens) (Q13547 whole entry): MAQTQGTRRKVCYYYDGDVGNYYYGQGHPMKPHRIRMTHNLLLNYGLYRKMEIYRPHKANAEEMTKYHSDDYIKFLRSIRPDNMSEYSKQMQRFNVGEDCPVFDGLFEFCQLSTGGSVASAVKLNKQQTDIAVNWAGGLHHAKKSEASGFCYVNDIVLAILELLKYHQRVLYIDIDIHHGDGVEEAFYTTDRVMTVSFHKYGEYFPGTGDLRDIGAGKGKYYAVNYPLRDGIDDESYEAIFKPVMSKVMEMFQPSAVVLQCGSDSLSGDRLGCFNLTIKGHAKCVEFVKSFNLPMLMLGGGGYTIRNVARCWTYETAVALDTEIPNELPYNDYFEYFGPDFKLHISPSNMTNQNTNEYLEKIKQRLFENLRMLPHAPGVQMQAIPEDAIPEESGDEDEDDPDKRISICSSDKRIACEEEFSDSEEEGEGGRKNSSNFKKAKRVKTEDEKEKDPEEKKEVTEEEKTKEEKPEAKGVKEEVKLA

[3] = tested on: Klebsiella pneumoniae; assay: Antibacterial activity against clinical isolate Klebsiella pneumoniae 50/20 expressing blaNDM-5 co-expressing blaTEM-1 and blaSHV-1 assessed as meropenem MIC at 72.88 uM measured after 20 hrs by broth microdilution assay (reference value: 24 mg/L); type: functional
[4] = tested on: Escherichia coli; assay: Antibacterial activity against clinical isolate Escherichia coli K12 J53-ST10 699/15 expressing blaNDM-1 assessed as meropenem MIC at 72.88 uM measured after 20 hrs by broth microdilution assay (reference value: 24 mg/L); type: functional
[5] = tested on: Klebsiella pneumoniae; assay: Antibacterial activity against clinical isolate Klebsiella pneumoniae ST23213/19 expressing blaNDM-1 co-expressing blaOXA-48/blaSHV-11/blaCTX-M-15 and blaOXA-1 assessed as meropenem MIC at 72.88 uM measured after 20 hrs by broth microdilution assay (reference value: 24 mg/L); type: functional
[6] = tested on: Escherichia coli; assay: Antibacterial activity against clinical isolate Escherichia coli K12 J53-ST10 684/18 expressing blaNDM-1 co-expressing blaCMY-2 and blaOXA-10 assessed as meropenem MIC at 36.44 uM measured after 20 hrs by broth microdilution assay (reference value: 12 mg/L); type: functional
[7] = Inhibition of IMP-1 (unknown origin) expressed in Escherichia coli BL21-DE3 incubated for 15 mins by absorbance based microplate reader analysis; set-up: species or system Bacteria
[8] = tested on: Escherichia coli; assay: Antibacterial activity against clinical isolate Escherichia coli K12 J53-ST10 618/15 expressing blaNDM-1 assessed as meropenem MIC at 72.88 uM measured after 20 hrs by broth microdilution assay (reference value: 24 mg/L); type: functional
[9] = tested on: Klebsiella pneumoniae; assay: Antibacterial activity against clinical isolate Klebsiella pneumoniae ST23213/19 expressing blaNDM-1 co-expressing blaOXA-48/blaSHV-11/blaCTX-M-15 and blaOXA-1 assessed as meropenem MIC at 36.44 uM measured after 20 hrs by broth microdilution assay (reference value: 12 mg/L); type: functional
[10] = target: Metallo-beta-lactamase type 2 (Bacteria) (UniProt C7C422)
Chain of Metallo-beta-lactamase type 2 (Bacteria) (C7C422 whole entry): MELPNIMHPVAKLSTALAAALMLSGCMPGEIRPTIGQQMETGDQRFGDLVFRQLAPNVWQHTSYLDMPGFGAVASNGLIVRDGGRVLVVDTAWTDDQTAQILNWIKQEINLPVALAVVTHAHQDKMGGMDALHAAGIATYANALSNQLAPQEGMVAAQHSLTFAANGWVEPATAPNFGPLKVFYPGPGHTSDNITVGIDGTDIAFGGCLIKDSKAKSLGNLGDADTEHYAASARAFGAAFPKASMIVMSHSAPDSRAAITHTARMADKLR
Description: Binding affinity to C-terminal 6His-tagged full length truncated NDM-1 (unknown origin) expressed in Escherichia coli BL21-DE3 assessed as change in enthalpy in presence of EDTA by isothermal titration calorimetric analysis

[11] = tested on: Escherichia coli; assay: Antibacterial activity against clinical isolate Escherichia coli K12 J53-ST10 699/15 expressing blaNDM-1 assessed as meropenem MIC at 36.44 uM measured after 20 hrs by broth microdilution assay (reference value: 12 mg/L); type: functional
[12] = tested on: Klebsiella pneumoniae; assay: Antibacterial activity against clinical isolate Klebsiella pneumoniae 62/07 expressing blaVIM-19 co-expressing blaSHV-1/blaCTX-M-14 and blaCMY-4 assessed as meropenem MIC at 72.88 uM measured after 20 hrs by broth microdilution assay (reference value: 24 mg/L); type: functional
[13] = tested on: Klebsiella pneumoniae; assay: Antibacterial activity against clinical isolate Klebsiella pneumoniae ST1493/10 expressing blaNDM-1 co-expressing blaCMY-2like/blaTEM-1/blaCTX-M-15/blaSHV-28/blaOXA-1 and blaOXA-9 assessed as meropenem MIC at 72.88 uM measured after 20 hrs by broth microdilution assay (reference value: 24 mg/L); type: functional
[14] = target: T1, Metallo-beta-lactamase type 2; remark: listed apart in the source
Description: Binding affinity to C-terminal 6His-tagged full length truncated NDM-1 (unknown origin) expressed in Escherichia coli BL21-DE3 assessed as dissociation constant by isothermal titration calorimetric analysis

[15] = tested on: Klebsiella pneumoniae; assay: Antibacterial activity against clinical isolate Klebsiella pneumoniae 50/11 expressing blaNDM-1 co-expressing blaTEM-1/blaSHV-28/blaTEM-1/blaCTX-M-15 and blaOXA-1 assessed as meropenem MIC at 72.88 uM measured after 20 hrs by broth microdilution assay (reference value: 24 mg/L); type: functional
[16] = tested on: Klebsiella pneumoniae; assay: Antibacterial activity against clinical isolate Klebsiella pneumoniae 50/11 expressing blaNDM-1 co-expressing blaTEM-1/blaSHV-28/blaTEM-1/blaCTX-M-15 and blaOXA-1 assessed as meropenem MIC at 36.44 uM measured after 20 hrs by broth microdilution assay (reference value: 12 mg/L); type: functional
[17] = Inhibition of GIM1 (unknown origin) incubated for 15 mins by absorbance based microplate reader analysis; set-up: species or system Bacteria
[18] = target: Metallo-beta-lactamase type 2 (Bacteria) (UniProt C7C422); remark: listed apart in the source
Description: Binding affinity to C-terminal 6His-tagged full length truncated NDM-1 (unknown origin) expressed in Escherichia coli BL21-DE3 assessed as change in enthalpy by isothermal titration calorimetric analysis

[19] = tested on: Acinetobacter baumannii; assay: Antibacterial activity against clinical isolate Acinetobacter baumannii IC 19/09 expressing blaNDM-1 co-expressing blaOXA-64 assessed as meropenem MIC at 72.88 uM measured after 20 hrs by broth microdilution assay (reference value: 24 mg/L); type: functional
[20] = Inhibition of VIM-2 (unknown origin) incubated for 15 mins by absorbance based microplate reader analysis; set-up: species or system Bacteria
[21] = Selectivity ratio of Ki for human recombinant MMP-2 CD to Ki for C-terminal 6His-tagged full length NDM-1 (unknown origin)
[22] = target: Metallo-beta-lactamase type 2 (Bacteria) (UniProt C7C422); remark: listed apart in the source
Description: Binding affinity to C-terminal 6His-tagged full length truncated NDM-1 (unknown origin) expressed in Escherichia coli BL21-DE3 assessed as change in enthalpy in presence of zinc sulfate by isothermal titration calorimetric analysis

[23] = tested on: Escherichia coli; assay: Antibacterial activity against clinical isolate Escherichia coli ST1012/10 expressing blaNDM-1 co-expressing blaTEM-1/blaCTX-M-15/blaOXA-1 and blaOXA-2 assessed as meropenem MIC at 72.88 uM measured after 20 hrs by broth microdilution assay (reference value: 24 mg/L); type: functional
[24] = tested on: Klebsiella pneumoniae; assay: Antibacterial activity against clinical isolate Klebsiella pneumoniae 62/07 expressing blaVIM-19 co-expressing blaSHV-1/blaCTX-M-14 and blaCMY-4 assessed as meropenem MIC at 36.44 uM measured after 20 hrs by broth microdilution assay (reference value: 12 mg/L); type: functional
[25] = target: Metallo-beta-lactamase type 2 (Bacteria) (UniProt C7C422); remark: listed apart in the source
[26] = tested on: Escherichia coli; assay: Antibacterial activity against clinical isolate Escherichia coli 371/12 expressing blaNDM-7 co-expressing blaCTX-M-15 and blaOXA-1 assessed as meropenem MIC at 72.88 uM measured after 20 hrs by broth microdilution assay (reference value: 24 mg/L); type: functional
[27] = tested on: Escherichia coli; assay: Antibacterial activity against clinical isolate Escherichia coli K12 J53-ST10 618/15 expressing blaNDM-1 assessed as meropenem MIC at 36.44 uM measured after 20 hrs by broth microdilution assay (reference value: 12 mg/L); type: functional
[28] = tested on: Escherichia coli; assay: Antibacterial activity against clinical isolate Escherichia coli ST1012/10 expressing blaNDM-1 co-expressing blaTEM-1/blaCTX-M-15/blaOXA-1 and blaOXA-2 assessed as meropenem MIC at 36.44 uM measured after 20 hrs by broth microdilution assay (reference value: 12 mg/L); type: functional
[29] = tested on: Escherichia coli; assay: Antibacterial activity against clinical isolate Escherichia coli K12 J53-ST10 684/18 expressing blaNDM-1 co-expressing blaCMY-2 and blaOXA-10 assessed as meropenem MIC at 72.88 uM measured after 20 hrs by broth microdilution assay (reference value: 24 mg/L); type: functional

T1 sequence (C7C422 whole entry): as above

O=C(O)c1ccc2cccc(NS(=O)(=O)c3ccccn3)c2n1
pIC50 [1]: 6.54 | inhibition [2]: < 5% | MIC [3]: ≤ 0.125 µg/mL | MIC [4]: ≤ 0.125 µg/mL | MIC [5]: 16 µg/mL | MIC [6]: ≤ 0.125 µg/mL | pIC50 [7]: 6.43 | MIC [8]: ≤ 0.125 µg/mL | MIC [9]: 16 µg/mL | deltaH [10]: -40 kJ/mol | MIC [11]: 0.5 µg/mL | MIC [12]: 0.25 µg/mL | MIC [13]: 1 µg/mL | pKd [14]: 6.98 | MIC [15]: ≤ 0.125 µg/mL | MIC [16]: ≤ 0.125 µg/mL | pIC50 [17]: 6.19 | deltaH [18]: -27.6 kJ/mol | MIC [19]: 1 µg/mL | pIC50 [20]: 6.62 | Ratio Ki [21]: 40 | deltaH [22]: -111 kJ/mol | MIC [23]: ≤ 0.125 µg/mL | MIC [24]: 2 µg/mL | ΔTm [25]: 15 °C | MIC [26]: ≤ 0.125 µg/mL | MIC [27]: ≤ 0.125 µg/mL | MIC [28]: ≤ 0.125 µg/mL | MIC [29]: ≤ 0.125 µg/mL
